The results in this text go back to the METLIN SMRT retention time set (Domingo-Almenara et al. 2019).

The nature of the series: gradient 5% acetonitrile 3 min, to 50% in 2 min, to 85% in 15 min, held 3 min, 100 µL/min. Particulars: column: Zorbax Extend-C18 2.1 x 50 mm; eluents: water / acetonitrile, 0.1% formic acid. The method in brief: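 A Zorbax Extend-C18 column (2.1 × 50 mm, 1.8 μm) run at 100 μL/min with water and acetonitrile, both containing 0.1% formic acid, separated mixtures of ~100 pure standards. The HPLC was coupled to a quadrupole time-of-flight mass spectrometer operated in positive and negative ionization mode, with dead and dwell volumes of 40 μL and 900 μL. Each retention time was taken from a computationally picked adduct peak that was then manually inspected.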
With `Cc1nnc(SCCC(=O)Nc2ccc(F)cc2)s1`, the RP-LC retention time turned out to be 692 s. Take `COC1CCC12CCN(C(=O)c1ccco1)CC2` (stereo unspecified): the RP-LC retention time turned out to be 735 s. The compound `COc1ccc(NC(=O)c2cc(C(C)C)n(C3CCS(=O)(=O)C3)n2)cc1Cl` (stereo unspecified) displayed an RP-LC retention time of 931 s. As for `CCCn1nnc(NCc2ccc(-c3cccc(Cl)c3C)o2)n1`, the RP-LC retention time was 1130 s. `CCCNC(=O)C1CCCN(c2ccc(SCC(=O)Nc3cc(C)c(Cl)cc3OC)nn2)C1` (stereo unspecified) registered an RP-LC retention time of 838 s. Turning to `COC(=O)c1c(-c2ccc(Cl)cc2)noc1N1CCOCC1`, the RP-LC retention time worked out at 968 s.

`CCCN1C(=O)COc2ccc(-c3noc(-c4ccc(OCC)cc4)n3)cc21` gave an RP-LC retention time of 1320 s.

Regarding `CCOC(=O)Cn1c(C2CC(=O)N(c3cc(OC)ccc3OC)C2)nc2ccccc21` (stereo unspecified), the RP-LC retention time was 725 s. In turn, `COc1cccc(NC(=O)C2(C)CCCCC(=O)N2)c1` (stereo unspecified) registered an RP-LC retention time of 601 s. On to `CCc1nnc(C2CN(C)CC23CCN(S(=O)(=O)c2cc(F)ccc2OC)CC3)o1` (stereo unspecified), for which the RP-LC retention time turned out to be 612 s. Consider `O=C(NCCc1csc(-c2ccccc2)n1)C1CCN(S(=O)(=O)c2ccccc2)CC1`, for which the RP-LC retention time is 881 s. For the compound `O=C(NC1CCCCCC1)c1nc(-c2ccnc(N3CCCC3)c2)no1`, the RP-LC retention time is 709 s.

The compound `O=C([C@@H]1C[C@H](F)CN1C(=O)Nc1ccc(F)cc1)N1CCCCC1` returned an RP-LC retention time of 690 s. With `Cc1ccc(C2CC(=O)N(c3ccc(F)cc3F)C(=O)C2)cc1` the figure was 987 s; with `COc1ccc(OC)c(Nc2nc(N(C)C)nc3c2cnn3-c2ccccc2)c1`, 1380 s. Compound `CN1CC[C@H](c2c(O)cc(O)c3c(=O)cc(-c4ccccc4Cl)oc23)[C@H](O)C1` displayed an RP-LC retention time of 689 s. The compound `COc1ccc(-c2nnc(-c3ccc(C)c(S(=O)(=O)N4CCCC4)c3)o2)cc1` displayed an RP-LC retention time of 1030 s. With `COc1ccc2[nH]c(-c3ccccc3)cc2c1` the figure was 1040 s.

For `CCOC(=O)c1nc2ccccc2nc1N1CCN(c2ccccn2)CC1`, the RP-LC retention time worked out at 666 s. In the case of `CNC(=O)N1CCC(C2CCN(C(=O)c3ccc(Cl)s3)C2)CC1` (stereo unspecified), the RP-LC retention time amounted to 705 s. `CCCn1cc(CCNS(=O)(=O)c2ccccc2C)c2cccnc21`: the RP-LC retention time was 830 s. For `O=C(NCCc1ccccc1)C(=O)NCCc1cccs1`, the RP-LC retention time came to 832 s. Regarding `O=C(Cn1nc2c(N3CCCCCC3)nccn2c1=O)Nc1ccc(F)cc1`, the RP-LC retention time came out at 715 s. The same measure for `CCn1c(=O)c2ccn(CC(=O)Nc3cc(C)ccn3)c2n(CC)c1=O`: 644 s; for `O=C(Nc1ccccc1C(=O)NCCCN1CCCC1)C1=CSCCO1`: 613 s; for `CCN(CC)CCCNC(=O)C(C)n1c2ccccc2c2cnn(C)c(=O)c21` (stereo unspecified): 559 s. Compound `CCCNC(=O)C1CCN(c2ccc(SCC(=O)Nc3cc(C)cc(C)c3)nn2)CC1` gave an RP-LC retention time of 685 s. Compound `CS(=O)(=O)N1CCc2ccc(C(=O)N3CCCCC3)cc21` had an RP-LC retention time of 717 s. `COc1cc(OC)c(NC(=O)Cn2ncc3c(c2=O)N(C)C(=O)CS3)cc1Cl` came in with an RP-LC retention time of 695 s. In the case of `COc1ccc2cccc(CCNC(C)=O)c2c1`, the RP-LC retention time turned out to be 696 s. In the case of `Cc1cccc(C)c1NS(=O)(=O)c1cc(-c2cc(C(F)(F)F)on2)sc1C`, the RP-LC retention time is 1230 s.

`CC(C)CN1CCN(S(=O)(=O)c2ccc(-c3nnc(C4CCC4)o3)o2)CC1` registered an RP-LC retention time of 610 s. With `O=c1c2sccc2n(Cc2nc(-c3ccc(Cl)cc3)no2)c(=O)n1-c1cccc(F)c1` the figure was 1070 s; with `O=C(Cc1csc(COc2ccccc2)n1)N1CCN(c2ccccn2)CC1`, 617 s; with `O=C(Cn1cncn1)N1CCC(c2nnc(C(F)(F)F)o2)CC1`, 588 s. As for `CN(C)C(=O)c1cn(C2CN(C(=O)c3cccc4[nH]ccc34)C2)nn1`, the RP-LC retention time came to 608 s. Consider `CCOC(=O)c1cc(-c2ccc(S(=O)(=O)N3CCN(c4ccccn4)CC3)s2)on1`, for which the RP-LC retention time worked out at 809 s. The same measure for `Cc1[nH]c(C)c(S(=O)(=O)N2CCC(C(=O)Nc3cccc(F)c3)CC2)c1C(=O)N1CCCC1`: 720 s; for `Cn1nc(-c2ccncc2)nc1C1CN(S(=O)(=O)c2cc(F)ccc2F)C1`: 638 s; for `CN1C(=O)c2cc(C(=O)NCc3cccc(Br)c3)nn2CC1(C)C(=O)NC1CCCC1` (stereo unspecified): 807 s.

Consider `CCC(C(=O)NCCCN1CCCC1=O)n1c2ccccc2c2cnn(C)c(=O)c21` (stereo unspecified), for which the RP-LC retention time stood at 692 s. The compound `COC1CN(c2cccc(F)c2)C12CCN(S(=O)(=O)Cc1ccccc1F)CC2` (stereo unspecified) displayed an RP-LC retention time of 1170 s. In turn, `CCCOc1nc2ccccc2nc1N1CCCC(C(=O)Nc2ccccc2OCC)C1` (stereo unspecified) showed an RP-LC retention time of 1280 s. For `CCn1cc(C(=O)N2CCC(c3nnc(-c4ccco4)o3)CC2)c(=O)c2ccc(C)nc21`, the RP-LC retention time came to 654 s. For the compound `CCN(Cc1ccccc1)S(=O)(=O)c1c(C)c(-c2nnc(C3CCC3)o2)n(C)c1C`, the RP-LC retention time was found to be 1130 s. `Cc1ccc(F)c(Nc2ncccc2S(N)(=O)=O)c1` returned an RP-LC retention time of 826 s.

`O=C1COc2ccc(S(=O)(=O)N3CCC(C(=O)NCc4ccc5c(c4)OCO5)CC3)cc2N1` gave an RP-LC retention time of 708 s.

For `CNC(=O)NC1CCN(c2ccc(C)c(C)c2)C1=O` (stereo unspecified), the RP-LC retention time stood at 654 s. Compound `C=CCn1nnnc1NCc1ccc2c(c1)n(C)c(=O)n2C` returned an RP-LC retention time of 609 s. Consider `COc1ccccc1-c1noc(C2CCCN2C(=O)c2ccsc2)n1` (stereo unspecified), for which the RP-LC retention time was 802 s.

Regarding `O=S(=O)(NCc1nc(-c2ccc(NS(=O)(=O)c3cccs3)cc2)no1)c1ccccc1`, the RP-LC retention time was 883 s.

In turn, `CCN1C(=O)c2cccnc2Sc2cc(NC(=O)c3ccc(Br)o3)ccc21` registered an RP-LC retention time of 842 s. Consider `CCOC(=O)c1noc2nc(C)nc(NCCc3ccc(C)cc3)c12`, for which the RP-LC retention time was 1130 s. The compound `Cc1ccc(NC(=O)CN2C(=O)CCCc3cc(S(=O)(=O)N4CCCC4)ccc32)c(C)c1` displayed an RP-LC retention time of 852 s. Compound `O=C(c1cc2c(s1)CCCC2)N1CCN(c2nnc3ccccn23)CC1` came in with an RP-LC retention time of 746 s. The compound `CCCn1c(C)cnc1C1CN(C(=O)c2ccoc2)C1` returned an RP-LC retention time of 573 s. Take `CCc1ccc(Nc2cc(C(=O)N3CCCCC3)nc3cc(OC)c(OC)cc23)cc1`: the RP-LC retention time was found to be 766 s. As for `CCOc1ccccc1CNC(=O)c1cnc(OC)nc1`, the RP-LC retention time worked out at 702 s.

For `COc1ccc(OC)c(S(=O)(=O)N2C[C@@H](F)C[C@H]2C(=O)N2CCCCC2)c1`, the RP-LC retention time was determined as 762 s. As for `CCn1cnc2ccc(C(=O)NC(C)C)cc2c1=O`, the RP-LC retention time came out at 628 s.

Consider `O=C(CCSc1nnc2ccc3ccccc3n12)Nc1ccc(F)cc1`, for which the RP-LC retention time was determined as 878 s. `Cc1cccc(NC(=O)CC(=O)Nc2ccc3nc4n(c(=O)c3c2)CCCCC4)n1` registered an RP-LC retention time of 624 s. The compound `Cn1cnc([N+](=O)[O-])c1Sc1nnnn1-c1ccccc1` returned an RP-LC retention time of 715 s. In turn, `Cc1c(C(=O)N2CCN(C(=O)c3ccc(Br)o3)CC2)[nH]c2ccccc12` came in with an RP-LC retention time of 839 s. In turn, `Cc1cccc(S(=O)(=O)N2CCC(c3nc(C(=O)N4CCOCC4)c(C)o3)CC2)c1` gave an RP-LC retention time of 819 s.

The compound `CCn1c(=O)c2ccn(CC(=O)NCc3ccc(SC)cc3)c2n(CC)c1=O` came in with an RP-LC retention time of 744 s. With `CC(C)Cn1cc(S(=O)(=O)NC2CCCCCC2)c2cccnc21`, the RP-LC retention time came to 1060 s. Turning to `CC(=O)N1CCCc2cc(S(=O)(=O)CCC(=O)N3CCN(c4cccc(C)c4)C(C)C3)ccc21` (stereo unspecified), the RP-LC retention time was found to be 750 s. In the case of `O=C(O)c1cccc(Nc2c(-c3ccc([N+](=O)[O-])cc3)nc3cnccn23)c1`, the RP-LC retention time was 717 s. With `CC(C)NC(=O)c1sc(-n2cccc2)nc1C(C)C` the figure was 1060 s. Regarding `O=C(NCc1cc(F)ccc1F)C1CCN(c2cnc(N3CCCC3)nc2)CC1`, the RP-LC retention time worked out at 667 s. Turning to `COc1ccc2[nH]c3c(c2c1)CCNC31CCN(S(=O)(=O)c2cccnc2)CC1`, the RP-LC retention time came out at 634 s. For the compound `Cc1nc(C(=O)Nc2ccccc2)c(C)o1`, the RP-LC retention time amounted to 809 s.

`O=C(Nc1ccc(-c2nc(-c3ccccc3)no2)cc1)C1CC(=O)N(C2CCCCC2)C1` (stereo unspecified) registered an RP-LC retention time of 1070 s. On to `CCCn1cc(C(=O)NC(C)c2cccnc2)c2cccnc21` (stereo unspecified), for which the RP-LC retention time worked out at 597 s. For the compound `CC(NC(=O)C(=O)N1CCOCC1)C(c1cccs1)N1CCN(c2ccccc2F)CC1` (stereo unspecified), the RP-LC retention time came out at 692 s. The same measure for `CSc1cccc(NC(=O)C2CCN(S(=O)(=O)c3cn(C)cn3)CC2)c1`: 736 s; for `CCN(CC)S(=O)(=O)N1CCC(C(=O)N2CCN(Cc3noc4ccccc34)CC2)CC1`: 708 s. `CCOc1ccccc1N1CCN(c2cc(C(=O)O)c3cc(NC(=O)C4CCC4)ccc3n2)CC1` had an RP-LC retention time of 864 s. The compound `CC(=O)N1CCC(c2nc(C)c(C(=O)O)s2)CC1` gave an RP-LC retention time of 588 s. With `O=C(Cn1cccc(-c2nc(-c3ccc(Br)cc3)no2)c1=O)NCc1ccc(F)cc1`, the RP-LC retention time was 952 s.
